Assay results: US11259516B2, “Method and apparatus for capsular delivery to plants” (priority 2017, dated 2022)

Legend:
[1] = test system: Acer negudo (Box elder); design: key: X indicates that the given herbicide is suitable for controlling the given weed; conditions: cited from earlier work
[2] = test system: Pittosporum undulatum (Sweet pittosporum); design: key: X indicates that the given herbicide is suitable for controlling the given weed; conditions: cited from earlier work
[3] = test system: Salix species (Willows); design: key: X indicates that the given herbicide is suitable for controlling the given weed; conditions: cited from earlier work
[4] = test system: Eucalyptus saligna (Sydney Blue Gum); test: Case 2: thinning of plantation grown Eucalyptus saligna with Di-Bak G, field trial; format: in vivo; conditions: at four months, on average a capsule every 13-14 cm of stem circumference
Description: (§1) Generally, one capsule was inserted per 10 cm stem circumference.
(§2) Tree health was assessed on a 0-4 scale, 0 being dead and 4 being healthy. Observations were made for evidence of ‘flashback’ in nearby untreated trees.
A trial was established on Brooklyn Station, Upper Tooloom, near Urbenville on 25 May 2017. GPS co-ordinates of the first treated plot were S28° 32.486′ E152° 24.782′. […] Trees were 6-10 m tall. Desirable trees were marked and the other trees were treated.
The trial consisted of four replicates with 15 trees per replicate. The number of capsules applied to each tree was dependent on tree circumference which was measured at chest height. The tree circumferences range was from 18 to 57 cm. Tree health was assessed at 4 months (25 Aug. 2017) and 7 months (20 Dec. 2017). Samples were collected for observation of dissolution of capsule and herbicide. Rainfall data for the closest recording station (Urbenville) was taken from the Bureau of Meteorology (BOM) internet site. No recent temperature data records were available for this site.

[5] = test system: Miconia calvescens (Velvet tree); design: key: X indicates that the given herbicide is suitable for controlling the given weed; conditions: cited from earlier work
[6] = test system: Toxicodendron succedaneum (Rhus); design: key: X indicates that the given herbicide is suitable for controlling the given weed; conditions: cited from earlier work
[7] = test system: Olea europea sbsp africana (African olive); design: key: X indicates that the given herbicide is suitable for controlling the given weed; conditions: cited from earlier work
[8] = test system: Koelreuteria elegans (Golden rain tree); design: key: X indicates that the given herbicide is suitable for controlling the given weed; conditions: cited from earlier work
[9] = test system: Solanum mauritianum (Wild tobacco tree); design: key: X indicates that the given herbicide is suitable for controlling the given weed; conditions: cited from earlier work
[10] = test system: Lycium ferocissium (African boxthom); design: key: X indicates that the given herbicide is suitable for controlling the given weed; conditions: cited from earlier work
[11] = test system: Acacia spp (Wattles); design: key: X indicates that the given herbicide is suitable for controlling the given weed; conditions: cited from earlier work
[12] = test system: Eucalyptus dunnii (Dunn's White Gum); test: Case 3: dose rate effect of Di-Bak G on Eucalyptus dunnii, field trial; format: in vivo; conditions: for mortality: single capsule per tree
Description: as §1, §2
In this trial, one, two or three capsules of glyphosate were inserted into Eucalyptus dunnii trees irrespective of their circumference. The trial was established on Brooklyn station, Upper Tooloom, near Urbenville on 26 May 2017. GPS co-ordinates were S28° 32.488′ E152° 24.778′. The trees were arranged in a similar manner, and similar in age and size, to the E. saligna trees described in Case 2. Desirable trees were marked and the other trees were treated.
This trial consisted of one replicate of 15 trees for each treatment. […] Tree health was assessed at 4 months (25 Aug. 2017) and 7 months (20 Dec. 2017). […] At the 4 month assessment, samples were collected for observation of dissolution of capsule and herbicide. Rainfall data for the closest recording station (Urbenville) was taken from the Bureau of Meteorology (BOM) internet site. No recent temperature data records were available for this site.

[13] = test system: Celtis sinensis (Chinese celtis); design: key: X indicates that the given herbicide is suitable for controlling the given weed; conditions: cited from earlier work
[14] = test system: Psidium cattleianum (Cherry guava); design: key: X indicates that the given herbicide is suitable for controlling the given weed; conditions: cited from earlier work
[15] = test system: Erythrina sykesii (Coral tree); design: key: X indicates that the given herbicide is suitable for controlling the given weed; conditions: cited from earlier work
[16] = test system: Mimosa pigra (Mimosa); design: key: X indicates that the given herbicide is suitable for controlling the given weed; conditions: cited from earlier work
[17] = test system: Leptospermum spp. (Tea trees); design: key: X indicates that the given herbicide is suitable for controlling the given weed; conditions: cited from earlier work
[18] = test system: Ricinus communis (Castor oil plant); design: key: X indicates that the given herbicide is suitable for controlling the given weed; conditions: in vivo; cited from earlier work
[19] = test system: western white gum (Eucalyptus argophloia); test: Example 3: glyphosate and glyphosate+imazapyr capsules, thinning trial in western white gum plantation
Description: The trial was established at the HQP plantation near Jandowae on 6 Feb. 2018. The trees were planted in rows 4 m apart at 1.5 m spacing. Trees were 6-10 m tall. Trees to be maintained were marked and the other trees were treated.
Four treatments were used, with capsules as follows:
Capsules and applicator used were as described in Example 2.
Herbicide capsules were applied to approx. 10 trees for each of the treatments. The number of capsules applied to each tree was independent of tree circumference which was measured at chest height. The tree circumferences range was from 12 to 25 centimetres. At 4 weeks, a small sample of trees were cut down with a chainsaw and cross-sections of stems containing the sites of insertion of the herbicide capsules removed. These stem pieces were returned to the laboratory and split open longitudinally through the insertion point. Tree health was assessed at 11 weeks (24 Apr. 2018) on a 0-4 scale with 0 being dead and 4 being healthy. Observations were made for evidence of flashback in untreated trees.

[20] = test system: Cascabela thevetia (Yellow oleander); design: key: X indicates that the given herbicide is suitable for controlling the given weed; conditions: cited from earlier work
[21] = test system: Inga edulis (Icecream tree); design: key: X indicates that the given herbicide is suitable for controlling the given weed; conditions: cited from earlier work
[22] = test system: Crataegus sinaica (Azarola); design: key: X indicates that the given herbicide is suitable for controlling the given weed; conditions: cited from earlier work
[23] = test system: Ligustrum lucidum (Broad leaf privet); design: key: X indicates that the given herbicide is suitable for controlling the given weed; conditions: cited from earlier work

In the case of O=C(O)CNCP(=O)(O)O [Glyphosate], the “suitability of herbicide for control of weed” value (shortened to “suitability of herbicide”) [1] is listed as “X”, the “suitability of herbicide” value [2] is listed as “X” and the “suitability of herbicide” value [3] is listed as “X”. The mortality [4] was “over 90%”, the “suitability of herbicide” value [5] was “X” and the “suitability of herbicide” value [6] was “X”. For the same compound, the “suitability of herbicide” value [7] was “X”, the “suitability of herbicide” value [8] was “X” and the “suitability of herbicide” value [9] was “X”. The “suitability of herbicide” value [10] was “X”, the “suitability of herbicide” value [11] was “X” and the trees dead ([12]; 2 capsules per tree, at 4 months) was roughly 90%. For the same compound, the treated trees killed ([12]; 2 capsules per tree, by 7 months) was “all had been killed”, the treated trees killed ([12]; 3 capsules per tree, by 4 months) was “killed all treated trees” and the mortality ([12]; at 4 months) was roughly 70%. For the same compound, the mortality ([12]; by 7 months) was roughly 80%, the “suitability of herbicide” value [13] was “X” and the “suitability of herbicide” value [14] was “X”. The “suitability of herbicide” value [15] was “X”, the “suitability of herbicide” value [16] was “X” and the “suitability of herbicide” value [17] was “X”. The “suitability of herbicide” value [18] was “X”, the “flashback in the trees marked for retention” value ([19]; 11 week assessment) was “no flashback was observed” and the “trees died (health rating 0-4 scale, 0 dead)” value ([19]; 11 weeks post treatment, 1 or 2 capsules per tree) was “majority of trees”. For the same compound, the “suitability of herbicide” value [20] was “X”, the “suitability of herbicide” value [21] was “X” and the “suitability of herbicide” value [22] was “X”. The “suitability of herbicide” value [23] was “X”.
